We go through 3 compounds from patent US20120009601A1, “METHODS AND COMPOSITIONS FOR REPROGRAMMING CELLS” (THE GENERAL HOSPITAL CORPORATION, priority 2010, published 2012).

Test [1] deals with induced hepatocyte-like cells (iHep). The test can be described thus: Generation of human iPS cells (iPS-hHepC) from induced hepatocyte-like cells (iHep). Type of test: cell-based. As to conditions: 96 hr. How it is done:
Human induced pluripotent stem (iPS) cells were generated from the hepatocyte-like cells that had been generated from human hepatoma cells, using 5′-aza-2′-deoxycytidine (5-AZAC) plus trichostatin A (TSA) without Oct3/4 and c-Myc. The iHep were maintained using a medium for Primate ES cell culture supplemented with 40 ng/ml of hepatocytes growth factor and 20 ng/ml of epidermal growth factor. Furthermore, 500 nM 5′-aza-2′ deoxycytidine (5-AZAC), 150 nM trichostatin A (TSA), 1 μM EMD 616452 as an inhibitor for Tgf beta receptor I kinase/activin-like kinase 5 (Alk5) and 0.5 mM valproic acid (VPA) were administered in the Primate ES cell medium for 96 hr. After 14 days, human iPS cells (iPS-hHepC) were established. Oct3/4 was reactivated by 5-AZAC+TSA. Furthermore, Sox2 and Klf4 were reactivated by EMD 616452 and VPA, respectively.

Test [2] has as its system human iPS cells that carry mutant p53. Put plainly: Evaluation of cancerous risk: microvessel density (MVD) within teratomas from human iPS cell lines in mice. The format is in vivo. The conditions noted are these: cells treated with PRIMA-1 20 μM; teratomas in immunodeficient mice, anti-CD31 immunofluorescence. The text has this:
The various human iPS cell lines (No. 1-No. 4) were inoculated intramuscularly into immunodeficient mice (Rag2^−/− Il2rg^−/−). Then, microvessel density (MVD) was compared within teratomas in mice among each group. Furthermore, for angiogenesis in teratomas from each human iPS cell lines, microvessel density (MVD) per high-powered field (h.p.f.) of teratomas was quantified by human-specific anti-CD31 immunofluorescence. n=3-6; All values were mean±s.e.m.
By using microvessel density analysis (MVD) within SCID mice that were transplanted with ChiPS cell lines, risk evaluation of malignant transformations were performed for human iPS cell lines established by various methods (3) (4) (5) (6), including the results described herein (FIG. 9). […] Then, p53-175N, p53-175S and p53-175D were identified as p53-mutational spots in human iPS cells which carry mutant p53, with codon 175 in human p53 being known as one mutational spot in human cancer (7).

Test [3] deals with human iPS cells which carry mutant p53. The test can be described thus: PRIMA-1 treatment of human iPS cells carrying mutant p53 (p21 expression, p53-dependent apoptosis). The format is cell-based. As to conditions: PRIMA-1 20 μM. How it is done: Next, human iPS cells that carry mutant p53 were selected and treated with PRIMA-1 (20 μM).
Test [4] relates to human iPS cells having wild-types p53. The test can be described thus: PRIMA-1 treatment of human iPS cells carrying wild-type p53 (p53-dependent apoptosis). The conditions noted are these: PRIMA-1 20 μM; human iPS cells with wild-type p53. Type of test: cell-based.

“Also recorded” adds a separate entry of the source.

Turning to `Cc1cccc(-c2[nH]ncc2-c2ccc3ncccc3n2)n1` [EMD 616452], the Sox2 reactivation result in test [1] (1 μM EMD 616452, Primate ES cell medium) was “reactivated”.

As for `O=C1C2CCN(CC2)C1(CO)CO` [PRIMA-1, 2,2-Bis(hydroxymethyl)-1-azabicyclo[2.2.2]octan-3-one], in test [2], the “MVD in human iPS cells carrying mutant p53” value is recorded as “equivalent to that of human iPS cell lines established by small molecules”. Moreover, the “induction of p53-dependent apoptosis” value in test [3] (human iPS cells that have mutant p53) was “induction of p53-dependent apoptosis”; in test [4] it was “not observed; also recorded: not found”. For the same compound, the “expression of p53 target genes p21” value in test [3] (human iPS cells which carry mutant p53) is “induced”.

As to `CCCC(CCC)C(=O)O` [VPA, valproic acid], in test [1] (0.5 mM VPA, Primate ES cell medium), the Klf4 reactivation result is listed as “reactivated”.
